Where a name gives a salt, the structure may show the parent alone.
Target: T1, sc-urokinase (Homo sapiens, UniProt P00749)
T1 construct: purchased Ribosepharm GmbH, Haan, Germany
Assay: Determination of the urokinase-inhibiting activity (chromogenic substrate, Dixon)
Format: biochemical
Conditions: Pefachrome UK or Bz-βAla-Gly-Arg-pNA, 25° C., pH 8.0, mean from at least 3 determinations
Experimental: Determination of the Urokinase-inhibiting Activity
To determine the inhibitory activity, 200 μl of Tris buffer (0.05 mol/l, containing the inhibitor, 0.154 mol/l of NaCl, 5% ethanol, pH 8.0), 25 μl of substrate (Pefachrome UK or Bz-βAla-Gly-Arg-pNA in H2O; Pentapharm Ltd., Basel, Switzerland) and 50 μl of sc-urokinase (Ribosepharm GmbH, Haan, Germany) were incubated at 25° C. After 3 min the reaction was stopped by the addition of 25 μl of acetic acid (50%) and the absorption was determined at 405 nm by means of a microplate reader (MR 50001 Dynatech, Denkendorf, Germany). The Ki values were determined according to Dixon by linear regression using a computer program. The Ki values represent the mean from at least 3 determinations.
The Ki values mentioned in Table 2 can be determined according to the above mentioned method.

| Ki | SMILES |
| --- | --- |
| 0.67 ± 0.18 µM | CCOC(=O)N1CCN(C(=O)N(Cc2cccc(C(=N)N)c2)NS(=O)(=O)c2c(C(C)C)cc(C(C)C)cc2C(C)C)CC1 [Example 5, 1-Ethoxycarbonyl-4-[1-(3-(amino-imino-methyl)-benzyl)-2-(2,4,6-triisopropyl-benzenesulfonyl)-1-hydrazino-carbonyl]-piperazine hydrochloride] |
| 25.6 ± 9.5 µM | CCOC(=O)N1CCN(C(=O)N(Cc2cccc(C(N)=NN)c2)NS(=O)(=O)c2c(C(C)C)cc(C(C)C)cc2C(C)C)CC1 [Example 18] |

From patent US6861435B2, “Urokinase inhibitors” (Pentapharm AG, priority 2001, dated 2005)
